Entries after “also recorded” stand apart in the source; their conditions may differ.
Key:
Type in all cases: cell-based
[1] = test system: EGFP-SOD1 G93A aggregates in HEK293T cell line; test: SOD1 protein aggregates after SOD1 overexpression, Western blot; conditions: bafilomycin 100 nM alone compared to the control
Method: (§1) FIG. 3A is a result of Western blot analysis of the level of SOD1 protein expression in protein samples obtained 18 h after treatment of HEK293T cells transfected to express SOD1 with 100 nM bafilomycin A1 alone or in combination with 30 μM of some variant alloferon peptides according to one embodiment of the present invention, for investigating the degradation of SOD1 protein aggregates by treatment with some variant alloferon peptides (DALS1, DAL-VS_V(−Q), DAL1, and DALV2) according to one embodiment of the present invention. FIG. 3B is a graph representing the results of quantifying relative expression of the SOD1 protein. In FIG. 3B, * indicates a significant difference compared to the treatment with bafilomycin alone (* p<0.05).
(§2) The present inventors then investigated whether some of the variant peptides (DALS1, DALVS_V, DAL1, DALV2) comprising the amino acid sequences designated as SEQ ID NO: 3 through 16 could resolve SOD1 aggregates that formed after transient transfection of SOD1 protein into the 293T cell line. To this end, EGFP-SOD1 G93A DNA was transiently transfected into the HEK293T cell line using Lipofectamine 2000. After transfection, the cell lines were incubated in a cell culture machine at 37° C. and 5% CO2 for 30 h, and the culture medium was replaced with Minimum Essential Medium (MEM, Gibco, USA). Subsequently, the cells were pretreated with 100 nM bafilomycin for 30 min, which were then treated with μM variant alloferon peptide and incubated for 18 h. After that, proteinase inhibitors and phosphatase inhibitors (2 μg/ml aprotinin, 2 μg/ml leupeptin, 1 μg/ml pepstatin A, 1 mM phenyl-methylsulfonyl fluoride (PMSF), 1 mM Na3 VO4, 5 mM NaF and 10 mM Na4P2O7) were put into a 6-well culture dish at 200 μl per well to lyse the cells. The obtained cell lysate was first left at 30 min for 4° C. Then, it was subjected to protein quantification using BCA protein assay kit (Pierce Biotechnology, USA), and centrifuged at 17,000×g for 20 min, where the supernant was discarded and only the cell debris was taken to obtain protein. Subsequently, 5× sample buffer (300 mM Tris, pH 6.8, 10% SDS, 50% Glycerol, 0.1% BPB, 2.5% Mercaptoethanol, 100 mM DTT) was mixed with the quantified sample, denatured at 95° C. for 5 min, and prepared for analysis. Then, electrophoresis was performed using 8% to 15% SDS-polyacrylamide gel, and the proteins separated by their sizes were transferred to polyvinylidene difluoride (PVDF) membranes (Millipore, USA). The protein-transferred membranes were then blocked with 3% skim milk powder in TBST for 1 h. […] Protein signals were detected using enhanced chemiluminescence (INTRON Biotechnology, South Korea) and a bio-imaging system (MF-Chemibis, Shimadzu Scientific Korea Corporation, South Korea).

[2] = test system: EGFP-Tau P301L aggregates in HEK293T cell line; test: Mutant tau protein aggregates after overexpression, Western blot; conditions: bafilomycin 100 nM alone compared to control
Method: as §1, with “FIG. 4A” for “FIG. 3A”, “of tau” for “of SOD1”, “express tau protein” for “express SOD1”, “FIG. 4B” for “FIG. 3B”, “the tau” for “the SOD1”, “protein. […]” for “protein. In FIG. 3B, * indicates a significant difference compared to the treatment with bafilomycin alone (* p<0.05).”
The present inventors then investigated whether some of the variant peptides (DALS1, DALVS_V, DAL1, DALV2) comprising the amino acid sequences designated as SEQ ID NO: 3 through 16 could resolve SOD1 aggregates that formed after transient transfection of SOD1 protein into the 293T cell line. […] Then, it was subjected to protein quantification using BCA protein assay kit (Pierce Biotechnology, USA), and centrifuged at 17,000×g for 20 min, where the supernant was discarded and only the cell debris was taken to obtain protein. Subsequently, 5× sample buffer (300 mM Tris, pH 6.8, 10% SDS, 50% Glycerol, 0.1% BPB, 2.5% Mercaptoethanol, 100 mM DTT) was mixed with the quantified sample, denatured at 95° C. for 5 min, and prepared for analysis. […]

[3] = test system: EGFP-α-synuclein A53T aggregates in HEK293T cell line; test: α-synuclein protein aggregates after overexpression, Western blot; conditions: bafilomycin 100 nM alone compared to the control
Method: FIG. 5 is a result of Western blot analysis of the level of α-synuclein protein expression in protein samples obtained 18 h after treatment of HEK293T cells transfected to express α-synuclein with 100 nM bafilomycin A1 alone or in combination with 30 µM of some variant alloferon peptides according to one embodiment of the present invention, for investigating the degradation of α-synuclein protein aggregates by treatment with some variant alloferon peptides (DALS1, DAL-VS_V(−Q), DAL1, and DALV2) according to one embodiment of the present invention.
as §2, with “After that, proteinase inhibitors and phosphatase inhibitors (2 μg/ml aprotinin, 2 μg/ml leupeptin, 1 μg/ml pepstatin A, 1 mM phenyl-methylsulfonyl fluoride (PMSF), 1 mM Na3 VO4, 5 mM NaF and 10 mM Na4P2O7) were put into a 6-well culture dish at 200 μl per well to lyse the cells. The obtained cell lysate was first left at 30 min for 4° C.” left out, “analysis.” for “analysis. Then, electrophoresis was performed using 8% to 15% SDS-polyacrylamide gel, and the proteins separated by their sizes were transferred to polyvinylidene difluoride (PVDF) membranes (Millipore, USA). The protein-transferred membranes were then blocked with 3% skim milk powder in TBST for 1 h.”, “Korea). […]” for “Korea).”

[4] = test system: GFP-mHttQ74 aggregates in HEK293T cell line; test: Mutant huntingtin protein aggregates after overexpression, Western blot; conditions: bafilomycin 100 nM alone compared to the control
Method: FIG. 6 is a result of Western blot analysis of the level of mutant huntingtin protein expression in protein samples obtained 18 h after treatment of HEK293T cells transfected to express mutant huntingtin protein with 100 nM bafilomycin A1 alone or in combination with 30 μM of some variant alloferon peptides according to one embodiment of the present invention, for investigating the degradation of mutant huntingtin protein aggregates by treatment with some variant alloferon peptides (DALS1, DAL-VS_V(−Q), DAL1, and DALV2) according to one embodiment of the present invention.
as §2, with “After that, proteinase inhibitors and phosphatase inhibitors (2 μg/ml aprotinin, 2 μg/ml leupeptin, 1 μg/ml pepstatin A, 1 mM phenyl-methylsulfonyl fluoride (PMSF), 1 mM Na3 VO4, 5 mM NaF and 10 mM Na4P2O7) were put into a 6-well culture dish at 200 μl per well to lyse the cells. The obtained cell lysate was first left at 30 min for 4° C.” left out, “analysis.” for “analysis. Then, electrophoresis was performed using 8% to 15% SDS-polyacrylamide gel, and the proteins separated by their sizes were transferred to polyvinylidene difluoride (PVDF) membranes (Millipore, USA). The protein-transferred membranes were then blocked with 3% skim milk powder in TBST for 1 h.”, “Korea). […]” for “Korea).”

[5] = test system: H4 cell lines (GL-H4) expressing GFP-linked LC3; test: Analysis of autophagic flow blocked by bafilomycin A-1 (LC3-GFP spots); conditions: bafilomycin (Baf A1) 100 nM alone, GL-H4 cells
Method: FIGS. 2A to 2C are series of fluorescence micrographs of LC3-GFP spots 12 h after treating H4 cell line (GL-H4) that stably overexpresses GFP-LC3 protein with various variant alloferon peptides according to one embodiment of the present invention in combination with bafilomycin at a concentration of 20 μM, showing that autophagic flux blocked by bafilomycin A-1 is restored by the variant alloferon peptides according to one embodiment of the present invention. FIGS. 2D to 2F are graphs showing quantification of the fluorescence intensity of LC3-GFP spots 12 h after treatment of the GL-H4 cell line with the variant alloferon peptides according to one embodiment of the present invention in combination with bafilomycin at a concentration of 20 μM.
H4 cell line (GL-H4) and HEK293T cell line permanently transfected with GFP-LC3 plasmid were used in the present invention. The cell culture medium was Minimum Essential Medium (MEM, WellGene) supplemented with 10% fetal bovine serum (Hyclone, USA) and antibiotic and antifungal mixture (WellGene, Korea) and cultured in a cell culture machine at 37° C. and 5% CO2.
To investigate the effect of peptides comprising the amino acid sequences designated as SEQ ID NO: 3 to 16 on autophagic flow, the present inventors treated H4 cell lines (GL-H4) expressing GFP-linked LC3 with the peptides (20 μM) and/or the autophagic inhibitor Bafilomycin A-1 (Baf A1, 100 nM) to inhibit autophagy, and then the effect of the variant alloferon peptides according to one embodiment of the present invention was investigated by fluorescence microscopy analysis.

Structure (SMILES): CO/C1=C\C(C)=C\[C@@H](C)[C@@H](O)[C@@H](C)C/C(C)=C/C=C/[C@H](OC)[C@@H]([C@@H](C)[C@@H](O)[C@H](C)[C@@]2(O)C[C@@H](O)[C@H](C)[C@@H](C(C)C)O2)OC1=O [bafilomycin, Bafilomycin A-1, reference compound]
- SOD1 protein aggregates [1]: increased
- mutant tau protein aggregates [2]: increased
- α-synuclein protein aggregates [3]: increased
- mutant huntingtin protein aggregates [4]: increased
- number and size of LC3 spots [5]: significantly increased; also recorded: significant increase in the number and size of LC3 spots
